Patent US20150132342A1, “NOVEL IMMUNE ACTIVATORS: SUBSTITUTE 4-AMINOQUINAZOLINES” (The Regents of the University of California, priority 2013, published 2015)

How the values were obtained:
Format in all cases: cell-based
HepG2 cells = assay: MTT assay in HepG2 cells; details: compounds tested at 10 μM; normalized with OD570-650 of vehicle treatment; in % (unit assumed)
human PBMC = assay: IL-8 release in human PBMC (ELISA); details: Homo sapiens, PBMC, 18 h; 0.5 μM; IL-8 release, normalized to LPS positive control=100
Experimental: In vitro activities in human peripheral blood mononuclear cells (PBMC). Human PBMC were isolated from buffy coats obtained from the San Diego Blood Bank (San Diego, Calif.) as described previously.^5,6 PBMC (1×10^6/mL) were incubated with various compounds in complete RPMI (Omega Scientific) for 18 h at 37° C., 5% CO2 and culture supernatants were collected. The levels of IL-8 in the supernatants were determined by ELISA (BD Biosciences).

TLR4/MD-2/CD14 = biological target: T1, TLR4/MD-2/CD14 (Homo sapiens, UniProt O00206+Q9Y6Y9); assay: hTLR4 HEK Blue reporter cells, NF-κB SEAP secretion (QuantiBlue OD630); details: for hTLR4 0.5 μM: Quantiblue OD630 of hTLR4 HEK Blue cells, normalized to LPS positive control=100; for Activity relative to compound 1a (SAR in words): TLR4 reporter cells and hPBMC
T1 construct: host or cells: HEK293 (HEK Blue hTLR4)
Experimental: In vitro assays using TLR reporter cell lines. Murine or humanTLR4 HEK Blue™ cells (Invivogen, 2.5×10^4 cells per well of a 96 well plate), or NF-κB/SEAPorter™ HEK 293 cells (Imgenex, San Diego, Calif.) for human TLR2, TLR3, TLR5, TLR7, TLR8, or TLR9 (5×10^4 cells per well of 96 well plate) were incubated with graded doses of the test compound. The culture supernatants were harvested after a 20-24 h incubation period. Secreted alkaline phosphatase (SEAP) activity in the supernatants was determined by a colorimetric assay, using either the SEAPorter Assay Kit (Imgenex, San Diego, Calif.), with absorbance read at 405 nm, or QuantiBlue (Invivogen), with absorbance read at 630 nm. In some experiments, graded concentrations of LPS-RS ([…], Invivogen) were used to test TLR4-specific binding of the hit compound.

human TLR4/MD-2 = biological target: T2, human TLR4/MD-2 (Homo sapiens, UniProt O00206+Q9Y6Y9); assay: BMDM from transgenic mice expressing human TLR4/MD-2 (IL-6, IP-10); details: BMDM from human TLR4/MD-2 transgenic mice deficient for murine TLR4/MD-2
T2 construct: expressed in transfected cells; host or cells: bone marrow derived macrophages of human TLR4 transgenic mice on a murine TLR4/MD-2 null C57BL/6 background (gift of Dr. L. Hajjar)
From the text: Animals. Seven to 9 week-old C57BL/6 (wild type, WT) and Cd14^−/− (C57BL/6 background) mice were purchased from the Jackson Laboratories (Bar Harbor, Mass.). Tlr4^−/− mice (C57BL/6 background) were a gift from Dr. Shizuo Akira (Osaka University, Japan) and were backcrossed for 10 generations onto the C57BL/6 background at University of California, San Diego (UCSD). MD-2^−/− mice (C57BL/6 background) were originally generated by Dr. K. Miyake (University of Tokyo, Tokyo, Japan) and were kindly provided by Dr. L. Hajjar (University of Washington, Seattle, Wash.). Human TLR4 transgenic mice on murine TLR4/MD-2 null C57BL/6 background were kindly provided by Dr. L. Hajjar.^3 All animal experiments were approved by the UCSD Institutional Animal Care and Use Committee.
In vitro cytokine induction in bone marrow derived dendritic cells (BMDC) and macrophages (BMDM). […] The levels of IL-6 or IP-10 in the culture supernatants were determined by ELISA (BD Biosciences, La Jolla, Calif.).^5 Finally, all levels of cytokine release were normalized to those of LPSstimulation within each experiment, set at 100.

T1 sequence (O00206 24-839): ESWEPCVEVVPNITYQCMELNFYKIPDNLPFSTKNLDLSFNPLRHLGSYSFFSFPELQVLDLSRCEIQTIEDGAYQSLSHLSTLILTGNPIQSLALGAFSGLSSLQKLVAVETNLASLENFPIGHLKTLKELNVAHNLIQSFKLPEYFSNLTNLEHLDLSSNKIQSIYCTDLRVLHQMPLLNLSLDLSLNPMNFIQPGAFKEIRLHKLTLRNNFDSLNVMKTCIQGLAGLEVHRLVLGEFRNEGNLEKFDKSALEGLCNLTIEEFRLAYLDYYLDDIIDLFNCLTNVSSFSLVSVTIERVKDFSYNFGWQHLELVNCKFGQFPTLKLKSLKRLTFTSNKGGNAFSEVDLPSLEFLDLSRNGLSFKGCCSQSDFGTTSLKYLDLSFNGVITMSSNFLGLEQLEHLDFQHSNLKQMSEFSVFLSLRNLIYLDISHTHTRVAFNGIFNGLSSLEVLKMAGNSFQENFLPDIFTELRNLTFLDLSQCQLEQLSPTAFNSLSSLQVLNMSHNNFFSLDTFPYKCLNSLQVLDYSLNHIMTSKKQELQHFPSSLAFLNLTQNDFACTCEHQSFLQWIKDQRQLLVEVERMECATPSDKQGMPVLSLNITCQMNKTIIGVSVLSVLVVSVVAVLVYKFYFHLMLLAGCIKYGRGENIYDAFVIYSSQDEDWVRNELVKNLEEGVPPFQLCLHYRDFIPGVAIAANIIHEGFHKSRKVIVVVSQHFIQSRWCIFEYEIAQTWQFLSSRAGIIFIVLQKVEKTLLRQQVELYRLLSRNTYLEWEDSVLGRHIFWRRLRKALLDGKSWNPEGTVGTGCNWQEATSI
T1 sequence (Q9Y6Y9 19-160): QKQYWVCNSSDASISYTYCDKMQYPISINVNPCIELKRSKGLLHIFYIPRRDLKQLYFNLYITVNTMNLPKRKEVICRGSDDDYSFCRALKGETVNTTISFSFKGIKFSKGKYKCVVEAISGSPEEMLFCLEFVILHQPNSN
T2 sequence (O00206 24-839): as the sequence (O00206 24-839) above
T2 sequence (Q9Y6Y9 19-160): as the sequence (Q9Y6Y9 19-160) above

Structure (SMILES) | HepG2 MT (HepG2 cells) | hTLR4 0.5 μM (TLR4/MD-2/CD14) | Activation of transgenic human TLR4/MD-2 complex relative to mouse TLR4/MD-2 (human TLR4/MD-2) | Activity relative to compound 1a (SAR in words) (TLR4/MD-2/CD14) | IL-8 release (% of LPS control) at 0.5 µM (human PBMC) [%]
CCOC(=O)c1nc(Nc2cc(Oc3c(C)cccc3C)cc([N+](=O)[O-])c2)c2ccccc2n1 [Compound 1j, Ethyl 4-((3-(2,6-dimethylphenoxy)-5-nitrophenyl)amino)quinazoline-2-carboxylate] | 106.3 | 0.6 |  |  | 0
CCOC(=O)c1nc(Nc2cc(Oc3ccccc3Br)cc([N+](=O)[O-])c2)c2ccccc2n1 [Compound 1g, Ethyl 4-((3-(2-bromophenoxy)-5-nitrophenyl)amino)quinazoline-2-carboxylate] | 90.8 | 79.0 | to a greater extent | enhanced | 35.6
CCOC(=O)c1nc(Nc2cc(Oc3ccccc3C(F)(F)F)cc([N+](=O)[O-])c2)c2ccccc2n1 [Compound 1i, Ethyl 4-((3-nitro-5-(2-(trifluoromethyl)phenoxy)phenyl)amino)quinazoline-2-carboxylate] | 67.1 | 58.7 |  |  | 26.5
CCOC(=O)c1nc(Nc2cc(Oc3ccc(C)cc3)cc([N+](=O)[O-])c2)c2ccccc2n1 [Compound 1d, Ethyl 4-((3-nitro-5-(p-tolyloxy)phenyl)amino)quinazoline-2-carboxylate] | 108.8 | 0.5 |  |  | 0.4
CCOC(=O)c1nc(Nc2cc(Oc3ccccc3I)cc([N+](=O)[O-])c2)c2ccccc2n1 [Compound 1h, Ethyl 4-((3-(2-iodophenoxy)-5-nitrophenyl)amino)quinazoline-2-carboxylate] | 93.8 | 65.5 |  | enhanced | 34.2
CCOC(=O)c1nc(Nc2cc(Oc3ccccc3C)cc([N+](=O)[O-])c2)c2ccccc2n1 [Compound 1b, Ethyl 4-((3-nitro-5-(o-tolyloxy)phenyl)amino)quinazoline-2-carboxylate] | 96.7 | 45.5 |  | enhanced | 20.5
CCOC(=O)c1nc(Nc2cc(Oc3ccccc3CC)cc([N+](=O)[O-])c2)c2ccccc2n1 [Compound 1e, Ethyl 4-((3-(2-ethylphenoxy)-5-nitrophenyl)amino)quinazoline-2-carboxylate] | 98.9 | 4.2 |  | substantial loss of activity | 3.2
CCOC(=O)c1nc(Nc2cc(Oc3ccccc3Cl)cc([N+](=O)[O-])c2)c2ccccc2n1 [Compound 1f, Ethyl 4-((3-(2-chlorophenoxy)-5-nitrophenyl)amino)quinazoline-2-carboxylate] | 107.4 | 73.9 |  | enhanced | 27.3
CCOC(=O)c1nc(Nc2cc(Oc3cccc(C)c3)cc([N+](=O)[O-])c2)c2ccccc2n1 [Compound 1c, Ethyl 4-((3-nitro-5-(m-tolyloxy)phenyl)amino)quinazoline-2-carboxylate] | 109.9 | 14.5 |  |  | 5.8
CCOC(=O)c1nc(Nc2cc(Oc3ccc4ccccc4c3)cc([N+](=O)[O-])c2)c2ccccc2n1 [Compound 1k, Ethyl 4-((3-(naphthalen-2-yloxy)-5-nitrophenyl)amino)quinazoline-2-carboxylate] | 111.4 | 0.8 |  | loss of activity | 0
CCOC(=O)c1nc(Nc2cc(N)cc(Oc3ccccc3)c2)c2ccccc2n1 [Compound 5a, Ethyl 4-((3-amino-5-phenoxyphenyl)amino)quinazoline-2-carboxylate] | 106.1 | 0.6 |  | complete loss of activity | 0.3

Now from value to compound, other results behind:

HepG2 MT (HepG2 cells) | hTLR4 0.5 μM (TLR4/MD-2/CD14) | Activation of transgenic human TLR4/MD-2 complex relative to mouse TLR4/MD-2 (human TLR4/MD-2) | Activity relative to compound 1a (SAR in words) (TLR4/MD-2/CD14) | Structure (SMILES) | IL-8 release (% of LPS control) at 0.5 µM (human PBMC) [%]
63.4 | 8.4 |  |  | CC(C)CCOC(=O)c1nc(Nc2cc(Oc3ccccc3)cc([N+](=O)[O-])c2)c2ccccc2n1 [Compound 12a, Isopentyl 4-((3-nitro-5-phenoxyphenyl)amino)quinazoline-2-carboxylate] | 2.2
106.5 | 67.8 |  |  | CC(C)OC(=O)c1nc(Nc2cc(Oc3ccccc3Br)cc([N+](=O)[O-])c2)c2ccccc2n1 [Compound 13g, Isopropyl 4-((3-(2-bromophenoxy)-5-nitrophenyl)amino)quinazoline-2-carboxylate] | 19.2
78.4 | 0.0 |  |  | NC(=O)c1nc(Nc2cc(Oc3ccccc3)cc([N+](=O)[O-])c2)c2ccccc2n1 [Compound 9a, 4-((3-nitro-5-phenoxyphenyl)amino)quinazoline-2-carboxamide] | 0.3
96.3 | 1.6 |  |  | O=C(O)c1nc(Nc2cc(Oc3ccccc3Br)cc([N+](=O)[O-])c2)c2ccccc2n1 [Compound 7g, 4-((3-(2-Bromophenoxy)-5-nitrophenyl)amino)quinazoline-2-carboxylic acid] | 0
116.4 | 0.4 |  |  | COC(=O)c1nc(Nc2cc(Oc3ccccc3)cc([N+](=O)[O-])c2)c2ccccc2n1 [Compound 10a, Methyl 4-((3-nitro-5-phenoxyphenyl)amino)quinazoline-2-carboxylate] | 0.2
105.0 | 1.1 |  |  | Nc1cc(Nc2nc(C(=O)O)nc3ccccc23)cc(Oc2ccccc2)c1 [Compound 6a, 4-((3-Amino-5-phenoxyphenyl)amino)quinazoline-2-carboxylic acid] | 0.3
65.6 | 7.4 |  |  | CC(C)OC(=O)c1nc(Nc2cc(Oc3ccccc3)cc([N+](=O)[O-])c2)c2ccccc2n1 [Compound 11a, Isopropyl 4-((3-nitro-5-phenoxyphenyl)amino)quinazoline-2-carboxylate] | 2.1
107.4 | 2.2 |  |  | CCNC(=O)c1nc(Nc2cc(Oc3ccccc3)cc([N+](=O)[O-])c2)c2ccccc2n1 [Compound 8a, N-Ethyl-4-((3-nitro-5-phenoxyphenyl)amino)quinazoline-2-carboxamide] | 1.5
84.5 | 0.6 |  |  | O=C(O)c1nc(Nc2cc(Oc3ccccc3)cc([N+](=O)[O-])c2)c2ccccc2n1 [Compound 7a, 4-((3-Nitro-5-phenoxyphenyl)amino)quinazoline-2-carboxylic acid] | 0.5
